For test [1], the target named is human orexin-1 receptor (Homo sapiens (Human), UniProt O43613). The experiment in a line: Intracellular calcium measurements (FLIPR), antagonism of orexin-A response. It is filed as cell-based. The conditions noted are these: CHO cells expressing human orexin-1 receptor, 3 nM orexin-A, geometric mean if determined several times, read-out: IC50 OX1. In short, it runs like this:
(§1)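 CHO cells expressing human OX1 or OX2 receptor, loaded with fluo-4 AM plus probenecid, preincubated with antagonist 120 min before 3 nM orexin-A challenge. FLIPR calcium peak heights compared with agonist-plus-vehicle response. IC50 possibly normalized to on-plate reference; geometric mean of repeat determinations.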
For orientation: Calcium assays in cells follow changes in intracellular calcium, usually with a dye or a luminescent sensor.

Test [2] concerns the target human orexin-2 receptor (Homo sapiens (Human), UniProt O43614). The test is described as above. It is filed as cell-based. The conditions noted are these: CHO cells expressing human orexin-2 receptor, 3 nM orexin-A, geometric mean if determined several times, read-out: IC50 OX2. In short, it runs like this:
as §1

The text below walks through data of US9403813B2, “Azetidine amide derivatives as orexin receptor antagonists” (ACTELION PHARMACEUTICALS LTD, priority 2013, dated 2016).

The term IC50 denotes the concentration at which inhibition is half-maximal.

human orexin-2 receptor, sequence (O43614 whole entry): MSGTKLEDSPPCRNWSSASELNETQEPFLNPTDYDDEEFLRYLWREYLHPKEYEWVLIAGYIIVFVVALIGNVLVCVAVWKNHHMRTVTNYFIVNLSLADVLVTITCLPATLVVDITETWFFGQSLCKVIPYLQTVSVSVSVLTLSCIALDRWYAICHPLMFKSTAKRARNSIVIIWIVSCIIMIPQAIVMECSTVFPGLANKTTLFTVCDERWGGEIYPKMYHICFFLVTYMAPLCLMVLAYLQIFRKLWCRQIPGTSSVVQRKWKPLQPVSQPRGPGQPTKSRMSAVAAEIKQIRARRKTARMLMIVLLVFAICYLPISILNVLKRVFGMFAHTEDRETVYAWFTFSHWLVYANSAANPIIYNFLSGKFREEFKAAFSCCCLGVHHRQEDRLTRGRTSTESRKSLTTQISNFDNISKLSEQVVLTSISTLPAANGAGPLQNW
human orexin-1 receptor, sequence (O43613 whole entry): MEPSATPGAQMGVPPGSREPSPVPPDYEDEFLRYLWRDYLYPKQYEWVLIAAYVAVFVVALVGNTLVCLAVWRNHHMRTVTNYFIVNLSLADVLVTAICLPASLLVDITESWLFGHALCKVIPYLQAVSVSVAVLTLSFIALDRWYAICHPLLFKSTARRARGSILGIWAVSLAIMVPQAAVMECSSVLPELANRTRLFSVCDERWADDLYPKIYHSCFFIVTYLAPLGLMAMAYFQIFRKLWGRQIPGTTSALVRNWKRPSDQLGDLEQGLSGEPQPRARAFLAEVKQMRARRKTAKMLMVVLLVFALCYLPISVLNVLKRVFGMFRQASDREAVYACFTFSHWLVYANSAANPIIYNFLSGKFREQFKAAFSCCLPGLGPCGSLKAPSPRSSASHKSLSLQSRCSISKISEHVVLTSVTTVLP

Regarding `COc1cc(C(=O)N2CC[C@H]2c2noc(-c3cccc(Cl)c3OC)n2)c(-n2nccn2)cc1Cl` [Example 112, {(S)-2-[5-(3-Chloro-2-methoxy-phenyl)-[1,2,4]oxadiazol-3-yl]-azetidin-1-yl}-(4-chloro-5-methoxy-2-[1,2,3]triazol-2-yl-phenyl)-methanone], the figures for the IC50 in test [1] and in test [2] were 70 nM and 1 nM, respectively.

As to `COc1c(Cl)cccc1-c1nc([C@@H]2CCN2C(=O)c2cc(Cl)c(C)cc2-n2nccn2)no1` [Example 113, {(S)-2-[5-(3-Chloro-2-methoxy-phenyl)-[1,2,4]oxadiazol-3-yl]-azetidin-1-yl}-(5-chloro-4-methyl-2-[1,2,3]triazol-2-yl-phenyl)-methanone], the 50% inhibitory concentration (IC50) in test [1] came out at 51 nM; in test [2], 1 nM.

For `Cc1ccc(-c2ccccc2)c(C(=O)N2CC[C@H]2c2noc(-c3cccc(Cl)c3C)n2)c1` [Example 114, {(S)-2-[5-(3-Chloro-2-methyl-phenyl)-[1,2,4]oxadiazol-3-yl]-azetidin-1-yl}-(4-methyl-biphenyl-2-yl)-methanone], the IC50 was 26 nM in test [1] and 2 nM in test [2].

On to `Cc1c(Cl)cccc1-c1nc([C@@H]2CCN2C(=O)c2cc(F)ccc2-c2ncccn2)no1` [Example 115, {(S)-2-[5-(3-Chloro-2-methyl-phenyl)-[1,2,4]oxadiazol-3-yl]-azetidin-1-yl}-(5-fluoro-2-pyrimidin-2-yl-phenyl)-methanone], for which the IC50 in test [1] was 984 nM; in test [2], 122 nM.

In the case of `COc1cc(C(=O)N2CC[C@H]2c2noc(-c3cccc(Cl)c3C)n2)c(-c2ncccn2)cc1C` [Example 116, {(S)-2-[5-(3-Chloro-2-methyl-phenyl)-[1,2,4]oxadiazol-3-yl]-azetidin-1-yl}-(5-methoxy-4-methyl-2-pyrimidin-2-yl-phenyl)-methanone], the IC50 worked out at 561 nM in test [1] and 5 nM in test [2].

In the case of `Cc1ccc(-c2ncccn2)c(C(=O)N2CC[C@H]2c2noc(-c3cccc(Cl)c3C)n2)c1` [Example 117, {(S)-2-[5-(3-Chloro-2-methyl-phenyl)-[1,2,4]oxadiazol-3-yl]-azetidin-1-yl}-(5-methyl-2-pyrimidin-2-yl-phenyl)-methanone], the half-maximal inhibitory concentration (IC50) in test [1] came to 606 nM; in test [2], 32 nM.

Regarding `COc1c(Cl)cccc1-c1nc([C@@H]2CCN2C(=O)c2ccc(C)cc2-n2nccn2)no1` [Example 118, {(S)-2-[5-(3-Chloro-2-methoxy-phenyl)-[1,2,4]oxadiazol-3-yl]-azetidin-1-yl}-(4-methyl-2-[1,2,3]triazol-2-yl-phenyl)-methanone], the IC50 in test [1] worked out at 81 nM; in test [2], 4 nM.

For the compound `COc1c(Cl)cccc1-c1nc([C@@H]2CCN2C(=O)c2ccc(Cl)cc2-n2nccn2)no1` [Example 119, {(S)-2-[5-(3-Chloro-2-methoxy-phenyl)-[1,2,4]oxadiazol-3-yl]-azetidin-1-yl}-(4-chloro-2-[1,2,3]triazol-2-yl-phenyl)-methanone], the half-inhibitory concentration (IC50) in test [1] was 38 nM; in test [2], 4 nM.

In the case of `Cc1ccc(-n2nccn2)c(C(=O)N2CC[C@H]2c2nnc(-c3ccccc3)[nH]2)c1` [Example 120, (5-Methyl-2-[1,2,3]triazol-2-yl-phenyl)-[(S)-2-(5-phenyl-4H-[1,2,4]triazol-3-yl)-azetidin-1-yl]-methanone], the values for the IC50 in test [1] and in test [2] were 13400 nM and 450 nM, respectively.

In the case of `Cc1ccc(C(=O)N2CC[C@H]2c2nnc(-c3ccccc3)[nH]2)c(-n2nccn2)c1` [Example 121, (4-Methyl-2-[1,2,3]triazol-2-yl-phenyl)-[(S)-2-(5-phenyl-4H-[1,2,4]triazol-3-yl)-azetidin-1-yl]-methanone], the IC50 in test [1] stood at 9070 nM; in test [2] it was 322 nM.

Consider `CCOc1ncccc1-c1nnc([C@@H]2CCN2C(=O)c2cc(C)ccc2-n2nccn2)[nH]1` [Example 122, {(S)-2-[5-(2-Ethoxy-pyridin-3-yl)-4H-[1,2,4]triazol-3-yl]-azetidin-1-yl}-(5-methyl-2-[1,2,3]triazol-2-yl-phenyl)-methanone], for which the IC50 stood at 2300 nM in test [1] and 92 nM in test [2].

For `CCOc1ncccc1-c1nnc([C@@H]2CCN2C(=O)c2ccc(C)cc2-n2nccn2)[nH]1` [Example 123, {(S)-2-[5-(2-Ethoxy-pyridin-3-yl)-4H-[1,2,4]triazol-3-yl]-azetidin-1-yl}-(4-methyl-2-[1,2,3]triazol-2-yl-phenyl)-methanone], the IC50 in test [1] stood at 2040 nM; in test [2], 316 nM.

For the compound `Cc1ccc(-n2nccn2)c(C(=O)N2CC[C@H]2c2nnc(-c3cccc(Cl)c3C)[nH]2)c1` [Example 124, {(S)-2-[5-(3-Chloro-2-methyl-phenyl)-4H-[1,2,4]triazol-3-yl]-azetidin-1-yl}-(5-methyl-2-[1,2,3]triazol-2-yl-phenyl)-methanone], the IC50 was 5880 nM in test [1] and 238 nM in test [2].

`Cc1ccc(-n2nccn2)c(C(=O)N2CC[C@H]2c2nnc(-c3ccccc3OC(F)(F)F)[nH]2)c1` [Example 125, (5-Methyl-2-[1,2,3]triazol-2-yl-phenyl)-{(S)-2-[5-(2-trifluoromethoxy-phenyl)-4H-[1,2,4]triazol-3-yl]-azetidin-1-yl}-methanone]: the 50% inhibitory concentration (IC50) in test [1] amounted to 2430 nM; in test [2], 56 nM.

Take `COc1c(Cl)cccc1-c1nnc([C@@H]2CCN2C(=O)c2cc(C)ccc2-n2nccn2)[nH]1` [Example 126, {(S)-2-[5-(3-Chloro-2-methoxy-phenyl)-4H-[1,2,4]triazol-3-yl]-azetidin-1-yl}-(5-methyl-2-[1,2,3]triazol-2-yl-phenyl)-methanone]: the concentration for half-maximal inhibition (IC50) in test [1] is 7230 nM; in test [2], 170 nM.

`Cc1ccc(C(=O)N2CC[C@H]2c2nnc(-c3ccccc3OC(F)(F)F)[nH]2)c(-n2nccn2)c1` [Example 127, (4-Methyl-2-[1,2,3]triazol-2-yl-phenyl)-{(S)-2-[5-(2-trifluoromethoxy-phenyl)-4H-[1,2,4]triazol-3-yl]-azetidin-1-yl}-methanone]: the results for the concentration for half-maximal inhibition (IC50) in test [1] and in test [2] were 866 nM and 11 nM, respectively.

As to `Cc1cc(C(=O)N2CC[C@H]2c2nnc(-c3ccccc3OC(F)(F)F)[nH]2)c(-n2nccn2)cc1C` [Example 128, (4,5-Dimethyl-2-[1,2,3]triazol-2-yl-phenyl)-{(S)-2-[5-(2-trifluoromethoxy-phenyl)-4H-[1,2,4]triazol-3-yl]-azetidin-1-yl}-methanone], the 50% inhibitory concentration (IC50) was 414 nM in test [1] and 9 nM in test [2].

Take `COc1cc(C(=O)N2CC[C@H]2c2nnc(-c3ccccc3OC(F)(F)F)[nH]2)c(-n2nccn2)cc1C` [Example 129, (5-Methoxy-4-methyl-2-[1,2,3]triazol-2-yl-phenyl)-{(S)-2-[5-(2-trifluoromethoxy-phenyl)-4H-[1,2,4]triazol-3-yl]-azetidin-1-yl}-methanone]: the IC50 was 454 nM in test [1] and 6 nM in test [2].

With `Cc1cc(-n2nccn2)c(C(=O)N2CC[C@H]2c2nnc(-c3ccccc3OC(F)(F)F)[nH]2)cc1Cl` [Example 130, (5-Chloro-4-methyl-2-[1,2,3]triazol-2-yl-phenyl)-{(S)-2-[5-(2-trifluoromethoxy-phenyl)-4H-[1,2,4]triazol-3-yl]-azetidin-1-yl}-methanone], the IC50 was determined as 245 nM in test [1] and 5 nM in test [2].

As to `COc1cc(C(=O)N2CC[C@H]2c2nnc(-c3ccccc3OC(F)(F)F)[nH]2)c(-n2nccn2)cc1Cl` [Example 131, (4-Chloro-5-methoxy-2-[1,2,3]triazol-2-yl-phenyl)-{(S)-2-[5-(2-trifluoromethoxy-phenyl)-4H-[1,2,4]triazol-3-yl]-azetidin-1-yl}-methanone], the IC50 was 497 nM in test [1] and 5 nM in test [2].

Take `O=C(c1ccc(Cl)cc1-n1nccn1)N1CC[C@H]1c1nnc(-c2ccccc2OC(F)(F)F)[nH]1` [Example 132, (4-Chloro-2-[1,2,3]triazol-2-yl-phenyl)-{(S)-2-[5-(2-trifluoromethoxy-phenyl)-4H-[1,2,4]triazol-3-yl]-azetidin-1-yl}-methanone]: the half-maximal inhibitory concentration (IC50) in test [1] is 315 nM; in test [2], 16 nM.

On to `O=C(c1ccc(C(F)(F)F)cc1-n1nccn1)N1CC[C@H]1c1nnc(-c2ccccc2OC(F)(F)F)[nH]1` [Example 133, (2-[1,2,3]Triazol-2-yl-4-trifluoromethyl-phenyl)-{(S)-2-[5-(2-trifluoromethoxy-phenyl)-4H-[1,2,4]triazol-3-yl]-azetidin-1-yl}-methanone], for which the IC50 in test [1] was 364 nM; in test [2] it was 17 nM.

For `Cc1ccc(-c2ccccc2)c(C(=O)N2CC[C@H]2c2nnc(-c3ccccc3OC(F)(F)F)[nH]2)c1` [Example 134, (4-Methyl-biphenyl-2-yl)-{(S)-2-[5-(2-trifluoromethoxy-phenyl)-4H-[1,2,4]triazol-3-yl]-azetidin-1-yl}-methanone], the IC50 in test [1] amounted to 563 nM; in test [2], 39 nM.

On to `Cc1ccc(-c2ncccn2)c(C(=O)N2CC[C@H]2c2nnc(-c3ccccc3OC(F)(F)F)[nH]2)c1` [Example 135, (5-Methyl-2-pyrimidin-2-yl-phenyl)-{(S)-2-[5-(2-trifluoromethoxy-phenyl)-4H-[1,2,4]triazol-3-yl]-azetidin-1-yl}-methanone], for which the IC50 came out at 2000 nM in test [1] and 348 nM in test [2].
